Data reported in US8859628B2, “Method for preventing, treating and diagnosing disorders of protein aggregation” (priority 2003, dated 2014).
“Also recorded” adds a separate entry of the source.

Key:
Format in all cases: in vivo, mouse
[1] = system: TgCRND8 mice; assay: Morris Water Maze, spatial reference memory version, three-day trial paradigm (treatment/reversal study); settings: three-day paradigm
Procedure: A cohort entered the study at 5 months of age and outcomes were analyzed at 6-months of age. The body weight, coat characteristics and in cage behavior was monitored. All experiments were performed according to the Canadian Council on Animal Care guidelines.
(§1) Behavioral Test—Reversal Study—Mice entered the Morris water maze test with a hidden platform on day one without pretraining. Mice were tested for 3 days with six trials per day. On the fourth day, the platform was removed from the pool and each mouse received one 30-s swim probe trial. On the last day the animals underwent a cue test in order to evaluate swimming ability, eye sight and general cognition. The cue test is composed at the platform being placed in a different quadrant than that used for testing and is tagged with a flag. Animals are allowed 60 s to find the platform. […] Behavioural data was analysed using a mixed model of factorial analysis of variance (ANOVA) with drug or genotype and training sessions as repeated measure factors.
The cognitive function of TgCRND8 mice was assessed using the spatial reference memory version of the Morris Water Maze using a three day trial paradigm (FIGS. 4-8).
Behavioural data was analysed using a mixed model of factorial analysis of variance (ANOVA) with drug and genotype as between subject variables and training sessions as within subject variable.
In these experiments, the dosage and oral administration of compounds, and the behavioral and neurochemical assays were the same as those employed in the above treatment experiments.

[2] = system: non-Tg littermates; assay: Morris Water Maze performance of treated non-Tg littermates; settings: treated vs untreated non-Tg
Procedure: Behavioral tests—After non-spatial pre-training, mice underwent place discrimination training for 5 days with 4 trials per day. Behavioral data was analyzed using a mixed model of factorial analysis of variance (ANOVA) with drug or genotype and training sessions as repeated measure factors.
as §1

[3] = system: wild type mice; assay: Control experiment: survival and general condition of treated wild type mice

For `O[C@H]1[C@H](O)[C@@H](O)[C@H](O)[C@@H](O)[C@@H]1O` [Scyllo-Inositol, scyllo-inositol], the “cognitive function, treated TgCRND8 mice vs non-Tg littermates (words)” value ([1]; 1 month treatment from 5 months of age) was “indistinguishable from non-Tg littermates on all days; also recorded: comparable to scyllo-inositol treated non-Tg littermates”, the “cognitive function, treated TgCRND8 mice vs treated non-Tg littermates” value ([1]; two months of treatment from 5 months of age) was “indistinguishable from scyllo-inositol treated non-Tg littermates; also recorded: remained indistinguishable from non-Tg littermates” and the “effect on performance of non-Tg mice” value [2] was “had no effect on the performance of non-Tg mice; also recorded: not effected”. For the same compound, the “survival, weight, fur condition, cage behavior” value [3] was “had no effect either on survival or on other parameters such as weight, fur condition or cage behavior”.
